Active and inactive are the calls of the source. The rule behind the calls is not given here.
Experiments:
Nociceptin receptor [1] = biological target: T1, Nociceptin receptor (Homo sapiens, UniProt P41146); experiment: Displacement of [125I]Tyr14-nociceptin from human NOP receptor expressed in human HEK293 cells after 90 mins by scintillation counting
Nociceptin receptor [2] = biological target: T1, Nociceptin receptor; experiment: Antagonist activity at human NOP receptor expressed in human HEK293 cells assessed as inhibition of GTPgammaS binding in presence of 300 nM GDP relative to control; assay type: functional, cell-based
[3] = biological target: Delta-type opioid receptor (Homo sapiens) (UniProt P41143); experiment: Displacement of [3H]-naltrindole from human delta opioid receptor expressed in human HEK293 cells after 2 hrs by scintillation counting; assay type: cell-based
Delta-type opioid receptor (Homo sapiens), sequence (P41143 whole entry): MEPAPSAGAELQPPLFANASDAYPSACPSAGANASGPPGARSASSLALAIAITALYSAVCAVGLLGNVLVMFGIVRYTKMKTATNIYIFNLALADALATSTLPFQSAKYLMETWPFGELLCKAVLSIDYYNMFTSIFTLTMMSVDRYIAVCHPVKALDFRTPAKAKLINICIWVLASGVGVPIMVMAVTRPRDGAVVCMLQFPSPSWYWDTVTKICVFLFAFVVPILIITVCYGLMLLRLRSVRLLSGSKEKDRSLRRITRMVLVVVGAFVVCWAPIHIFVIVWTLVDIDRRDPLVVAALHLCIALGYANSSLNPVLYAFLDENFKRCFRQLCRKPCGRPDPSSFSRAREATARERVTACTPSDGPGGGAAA

Homo sapiens [4] = organism: Homo sapiens; experiment: Selectivity ratio of IC50 for human kappa opioid receptor to IC50 for human NOP receptor
Mu-type opioid receptor = Mu-type opioid receptor (Homo sapiens, UniProt P35372); experiment: Displacement of [3H]-naltrindole from human mu opioid receptor expressed in CHO cells after 2 hrs by scintillation counting; assay type: cell-based
Mu-type opioid receptor, sequence (P35372 whole entry): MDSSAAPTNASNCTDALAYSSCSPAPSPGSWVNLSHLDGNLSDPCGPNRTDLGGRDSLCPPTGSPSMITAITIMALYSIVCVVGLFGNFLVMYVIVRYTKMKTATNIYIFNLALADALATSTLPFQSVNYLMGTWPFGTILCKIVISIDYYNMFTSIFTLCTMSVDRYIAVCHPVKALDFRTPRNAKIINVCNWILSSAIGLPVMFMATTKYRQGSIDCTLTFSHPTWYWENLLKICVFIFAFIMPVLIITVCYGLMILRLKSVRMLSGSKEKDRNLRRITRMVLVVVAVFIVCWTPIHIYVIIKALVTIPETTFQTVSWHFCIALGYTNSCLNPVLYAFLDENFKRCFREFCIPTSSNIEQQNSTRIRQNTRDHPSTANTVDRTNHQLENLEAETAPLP

Homo sapiens [5] = organism: Homo sapiens; experiment: Selectivity ratio of IC50 for human mu opioid receptor to IC50 for human NOP receptor
[6] = biological target: Kappa-type opioid receptor (Homo sapiens, UniProt P41145); experiment: Displacement of [3H]-diprenorphine from human kappa opioid receptor expressed in human HEK293 cells after 2 hrs by scintillation counting
Kappa-type opioid receptor, sequence (P41145 whole entry): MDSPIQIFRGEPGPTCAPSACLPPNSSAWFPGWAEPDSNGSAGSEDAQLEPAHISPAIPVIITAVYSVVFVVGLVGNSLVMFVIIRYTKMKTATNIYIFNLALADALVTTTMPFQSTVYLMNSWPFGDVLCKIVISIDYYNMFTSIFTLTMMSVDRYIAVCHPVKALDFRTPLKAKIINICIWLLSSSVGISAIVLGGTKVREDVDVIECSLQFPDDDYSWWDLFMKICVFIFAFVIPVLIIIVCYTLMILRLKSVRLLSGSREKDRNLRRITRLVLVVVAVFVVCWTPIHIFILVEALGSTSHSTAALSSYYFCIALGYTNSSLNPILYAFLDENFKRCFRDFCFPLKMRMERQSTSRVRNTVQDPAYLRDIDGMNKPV

T1 sequence (P41146 whole entry): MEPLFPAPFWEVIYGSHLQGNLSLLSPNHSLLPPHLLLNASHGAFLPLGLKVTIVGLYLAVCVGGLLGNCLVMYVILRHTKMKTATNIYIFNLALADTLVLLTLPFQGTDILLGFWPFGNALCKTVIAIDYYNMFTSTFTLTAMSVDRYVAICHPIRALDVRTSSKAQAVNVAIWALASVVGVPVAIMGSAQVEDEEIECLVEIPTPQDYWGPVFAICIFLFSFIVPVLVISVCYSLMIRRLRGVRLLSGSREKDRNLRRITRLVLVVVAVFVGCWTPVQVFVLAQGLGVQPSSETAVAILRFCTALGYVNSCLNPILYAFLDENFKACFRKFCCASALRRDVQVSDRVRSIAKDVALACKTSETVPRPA

Structure (SMILES) | IC50 (Nociceptin receptor [1]) [nM] | Activity (Nociceptin receptor [2]) | Activity [3] | Ratio IC50 (Homo sapiens [4]) | IC50 (Mu-type opioid receptor) [nM] | Ratio IC50 (Homo sapiens [5]) | IC50 [6] [nM]
CCCCCCCC/N=C/c1ccc(OCc2ccccc2C(=O)Nc2ccc3nc(C)cc(N)c3c2)cc1 | 147 | Active | inactive |  |  |  | 
Cc1cc(N)c2cc(NC(=O)c3ccccc3COc3ccc(CNCCCCN)cc3)ccc2n1 | 800 | Active | inactive | 7.2 | 5330 | 9 | 4260
Cc1cc(N)c2cc(NC(=O)c3ccccc3COc3ccc(/C=N/CCCCCCC/N=C/c4ccc(OCc5ccccc5C(=O)Nc5ccc6nc(C)cc(N)c6c5)cc4)cc3)ccc2n1 | 63.1 | Active | inactive |  |  |  | 
Cc1cc(N)c2cc(NC(=O)c3ccccc3COc3ccc(CNCCCCCCCCCCNCc4ccc(OCc5ccccc5C(=O)Nc5ccc6nc(C)cc(N)c6c5)cc4)cc3)ccc2n1 | 32.7 | Active | inactive | 31 | 1320 | 45 | 900
CCCNCc1ccc(OCc2ccccc2C(=O)Nc2ccc3nc(C)cc(N)c3c2)cc1 | 83 | Active | inactive | 45 | 3350 | 49 | 3080
CCCCCCNCc1ccc(OCc2ccccc2C(=O)Nc2ccc3nc(C)cc(N)c3c2)cc1 | 1220 | Active | inactive | 1.2 | 2590 | 2.6 | 1160
Cc1cc(N)c2cc(NC(=O)c3ccccc3COc3ccc(C=O)cc3)ccc2n1 | 207 | Active | inactive |  |  |  | 
Cc1cc(N)c2cc(NC(=O)c3ccccc3COc3ccc(/C=N/CCCC/N=C/c4ccc(OCc5ccccc5C(=O)Nc5ccc6nc(C)cc(N)c6c5)cc4)cc3)ccc2n1 | 35.6 | Active | inactive |  |  |  | 
Cc1cc(N)c2cc(NC(=O)c3ccccc3COc3ccc(CNCCCCCCCCCN)cc3)ccc2n1 | 212 | Active | inactive | 40 | 7070 | 46 | 6180
Cc1cc(N)c2cc(NC(=O)c3ccccc3COc3ccc(/C=N/CCCCC/N=C/c4ccc(OCc5ccccc5C(=O)Nc5ccc6nc(C)cc(N)c6c5)cc4)cc3)ccc2n1 | 50.9 | Active | inactive |  |  |  | 
Cc1cc(N)c2cc(NC(=O)c3ccccc3COc3ccc(CNCCCN)cc3)ccc2n1 | 160 | Active | inactive | 14 | 1400 | 12 | 1650
CCCCCNCc1ccc(OCc2ccccc2C(=O)Nc2ccc3nc(C)cc(N)c3c2)cc1 | 732 | Active | inactive | 13 | 4450 | 16 | 3670
CCCCCCCCCCNCc1ccc(OCc2ccccc2C(=O)Nc2ccc3nc(C)cc(N)c3c2)cc1 | 405 | Active | inactive | 15 | 2750 | 9.6 | 4350
Cc1cc(N)c2cc(NC(=O)c3ccccc3COc3ccc(CNCCCCCCCCCCN)cc3)ccc2n1 | 153 | Active | inactive | 86 | 1400 | 13 | 9100
Cc1cc(N)c2cc(NC(=O)c3ccccc3COc3ccc(CNCCCCCCCCNCc4ccc(OCc5ccccc5C(=O)Nc5ccc6nc(C)cc(N)c6c5)cc4)cc3)ccc2n1 | 31.6 | Active | inactive | 37 | 1900 | 56 | 1270
CCCCCCCCNCc1ccc(OCc2ccccc2C(=O)Nc2ccc3nc(C)cc(N)c3c2)cc1 | 483 | Active | inactive | 15 | 4340 | 13 | 4950
Cc1cc(N)c2cc(NC(=O)c3ccccc3COc3ccc(CNCCCCCNCc4ccc(OCc5ccccc5C(=O)Nc5ccc6nc(C)cc(N)c6c5)cc4)cc3)ccc2n1 | 76.2 | Active | inactive | 28 | 2510 | 46 | 1500
Cc1cc(N)c2cc(NC(=O)c3ccccc3COc3ccc(CNCCCCCN)cc3)ccc2n1 | 207 | Active | inactive | 18 | 4880 | 41 | 2150

Reference: ChEMBL document CHEMBL1759965, “Synthesis and pharmacological evaluation of bivalent antagonists of the nociceptin opioid receptor” (Eur J Med Chem, 2011)
